These results are taken from PubChem BioAssay AID1996.

For orientation: solubility (kinetic) means solubility judged after dilution from a stock solution rather than from solid.

SMILES strings stand for the structures. Converted amounts (≈) assume the structure as drawn.

The conditions of the data set: buffer; pH 7.4; 200.0 µM.
`O=S(=O)(NCc1cccs1)c1ccc(Cl)s1` displayed a solubility (kinetic) of 40.5 µg/mL (≈ 138 µM).
Compound `COCCNC(=O)COC(=O)c1cccnc1SC` displayed a kinetic solubility above 42.6 µg/mL.
The compound `CC(C)(C)C(=O)NC1(C(F)(F)F)NC(=O)N(c2ccccc2F)C1=O` (stereo unspecified) registered a kinetic solubility above 54.2 µg/mL.
The value for `O=C(O)c1ccccc1N1C(=O)c2cccc3cccc(c23)C1=O` was above 47.6 µg/mL.
Then `CC12CN(C(=O)c3cccc([N+](=O)[O-])c3)C3(C#N)CC1CCC23C` (stereo unspecified), with 45.3 µg/mL (≈ 139 µM); and `O=c1[nH]c(=S)n(C2CC2)c(O)c1C=NCCc1ccccc1`, with below 0.2 µg/mL; and `O=C1CCC(=O)N1Cc1c(Cl)cccc1Cl`, with 35.5 µg/mL (≈ 138 µM).
In the case of `COc1cccc(N=Cc2c(O)n(Cc3ccco3)c(=O)[nH]c2=O)c1`, the solubility (kinetic) stood at 6.1 µg/mL (≈ 17.9 µM).
On to `Cc1ccc(NC(=O)Nc2cnc3ccccc3c2)cc1`, for which the solubility (kinetic) turned out to be 0.3 µg/mL (≈ 1.08 µM). This solubility kinetic lies about 20-fold lower than the previous one.
Then `COCCNC(=O)C(=O)c1c(-c2ccccc2)[nH]c2ccccc12`, with above 48.4 µg/mL; and `Cc1cc(C)c(C(=O)COC(=O)c2cccnc2Cl)c(C)c1`, with 7.3 µg/mL (≈ 23 µM); and `O=C(CCC(=O)Nc1cccc(C(F)(F)F)c1)NCC1CCCO1` (stereo unspecified), with above 51.6 µg/mL.
For `Cc1cc(C)nc(/N=c2/ssnc2Cl)c1`, the kinetic solubility was determined as 1.8 µg/mL (≈ 6.98 µM).
Then `O=C(CNC(=O)c1ccc(-c2ccccc2)cc1)Nc1cccc(CO)c1`, with 9.3 µg/mL (≈ 25.8 µM); and `Cn1cccc1/C=C1/C(=O)NC(=O)N(C(C)(C)C)C1=O`, with 37.1 µg/mL (≈ 135 µM).
As for `O=C(Nc1ccc2ccccc2n1)c1ccccc1`, the kinetic solubility was 29.8 µg/mL (≈ 120 µM).
On to `Cc1cc(F)ccc1S(=O)(=O)Nc1nc2ccccc2nc1Cl`, for which the solubility (kinetic) is above 52.8 µg/mL.
Regarding `CCOc1ccc(C(=O)NCCc2cnc[nH]2)cc1`, the kinetic solubility is above 38.9 µg/mL.
The compound `CCCn1cnc2scc(-c3ccc(OC)cc3)c2c1=O` gave a kinetic solubility of 13.9 µg/mL (≈ 46.3 µM).
As for `CNC(=S)N1CCn2cccc2C1c1cc(OC)c(OC)c(OC)c1` (stereo unspecified), the kinetic solubility is above 54.2 µg/mL.
As to `COc1ccccc1CCn1c(N)cc(=O)[nH]c1=O`, the kinetic solubility is above 39.2 µg/mL.
The value for `Cc1cc(C)cc(NC(=O)c2cccnc2)c1` was above 33.9 µg/mL; that for `CCN(CC)CC1C(=O)N(c2ccc(OC)cc2)C1c1ccccc1` (stereo unspecified) was above 50.8 µg/mL.
Then `COc1cccc(C=O)c1OCCN1C(=O)c2ccccc2C1=O`, with 42.6 µg/mL (≈ 131 µM).
Compound `Cc1ccccc1CN1CCN(CC(=O)NC(C)c2ccccc2)CC1` (stereo unspecified) gave a solubility (kinetic) of 47.8 µg/mL (≈ 136 µM).
Regarding `COc1cc(/C=C(\C#N)C(=O)NCC2CCCO2)ccc1OCCC(C)C` (stereo unspecified), the solubility (kinetic) was determined as 7.9 µg/mL (≈ 21.2 µM).
`O=C(CCc1ccccc1)NC1C2CC3CC(C2)CC1C3` (stereo unspecified) registered a kinetic solubility of 34.6 µg/mL (≈ 122 µM).
Compound `O=S(=O)(c1ccc(F)cc1)N1CCCC1c1cccnc1` (stereo unspecified) registered a kinetic solubility above 46 µg/mL.
Then `COc1ccccc1C(C)NCC(=O)NCc1ccc(C)cc1` (stereo unspecified), with above 46.9 µg/mL; and `Cc1ccc(CC2C(=O)N(c3ccc(F)cc3)C(=O)C2C)cc1` (stereo unspecified), with 3.3 µg/mL (≈ 10.6 µM).
Compound `Cc1ccc(Cl)cc1NC(=O)COc1ccccc1` returned a solubility (kinetic) of 1.9 µg/mL (≈ 6.89 µM).
`O=C(CC12CC3CC(CC(C3)C1)C2)Nc1ccc(C(=O)O)cc1` had a solubility (kinetic) above 47 µg/mL.
`Cc1ccc(C(=O)NC(C)C(c2cccs2)N2CCCC2)s1` (stereo unspecified) registered a solubility (kinetic) above 50.2 µg/mL.
Turning to `Cc1cccc(N=C2NC(=O)/C(=C/c3cccn3C)S2)c1C`, the solubility (kinetic) came out at 8.2 µg/mL (≈ 26.3 µM).
Regarding `CCN(CC)c1ccc(C(=O)OCC(=O)N2CCCC2)cc1`, the solubility (kinetic) is above 45.7 µg/mL.
With `Cc1cc(/C(N)=N/OC(=O)Nc2cccc(C(F)(F)F)c2)no1`, the solubility (kinetic) is 7.2 µg/mL (≈ 21.9 µM).
Take `S=C(NCc1ccccc1)Nc1ccc(Oc2ccccc2)cc1`: the solubility (kinetic) was 6.8 µg/mL (≈ 20.3 µM). The solubility kinetic values of the last two compounds are within 1.5-fold of each other.
The compound `O=C(NCCc1c[nH]c2ccccc12)c1ccc(F)cc1F` gave a solubility (kinetic) above 45 µg/mL.
As to `COc1ccc(-n2c(-c3ccc(C)cc3)nc3ccccc3c2=O)cc1`, the solubility (kinetic) is below 0.4 µg/mL.
`CN(Cc1ccccc1)S(=O)(=O)c1cccc2nsnc12` registered a kinetic solubility of 3 µg/mL (≈ 9.39 µM).
`Cc1[nH]c2ccccc2c1C(=O)C(=O)NCCCn1ccnc1` yielded a solubility (kinetic) above 46.6 µg/mL.
